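These data come from cells grown in 96-well plates and exposed to compound for 48 hours at five concentrations. TGI is the concentration that stops growth completely.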
Key:
Test in all cases: NCI tumour cell line growth inhibition, 48 h
786-0 renal = tested on: 786-0 renal
A498 renal = tested on: A498 renal
A549 NSCLC = tested on: A549 NSCLC
ACHN renal = tested on: ACHN renal
CAKI-1 renal = tested on: CAKI-1 renal
CCRF-CEM leukemia = tested on: CCRF-CEM leukemia
COLO 205 colon = tested on: COLO 205 colon
DLD-1 colon = tested on: DLD-1 colon
DMS 114 small cell lung = tested on: DMS 114 small cell lung
DMS 273 small cell lung = tested on: DMS 273 small cell lung
EKVX NSCLC = tested on: EKVX NSCLC
HCT-116 colon = tested on: HCT-116 colon
HCT-15 colon = tested on: HCT-15 colon
HOP-18 NSCLC = tested on: HOP-18 NSCLC
HT29 colon = tested on: HT29 colon
IGROV1 ovarian = tested on: IGROV1 ovarian
K-562 leukemia = tested on: K-562 leukemia
KM12 colon = tested on: KM12 colon
KM20L2 colon = tested on: KM20L2 colon
LOX IMVI melanoma = tested on: LOX IMVI melanoma
LXFL 529 NSCLC = tested on: LXFL 529 NSCLC
M14 melanoma = tested on: M14 melanoma
M19-MEL melanoma = tested on: M19-MEL melanoma
MALME-3M melanoma = tested on: MALME-3M melanoma
MOLT-4 leukemia = tested on: MOLT-4 leukemia
NCI-H23 lung = tested on: NCI-H23 lung
NCI-H460 lung = tested on: NCI-H460 lung
NCI-H522 lung = tested on: NCI-H522 lung
OVCAR-3 ovarian = tested on: OVCAR-3 ovarian
OVCAR-4 ovarian = tested on: OVCAR-4 ovarian
OVCAR-5 ovarian = tested on: OVCAR-5 ovarian
OVCAR-8 ovarian = tested on: OVCAR-8 ovarian
RPMI-8226 leukemia = tested on: RPMI-8226 leukemia
RXF 393 renal = tested on: RXF 393 renal
RXF-631 renal = tested on: RXF-631 renal
SF-268 CNS = tested on: SF-268 CNS
SF-539 CNS = tested on: SF-539 CNS
SK-MEL-2 melanoma = tested on: SK-MEL-2 melanoma
SK-MEL-28 melanoma = tested on: SK-MEL-28 melanoma
SK-MEL-5 melanoma = tested on: SK-MEL-5 melanoma
SK-OV-3 ovarian = tested on: SK-OV-3 ovarian
SN12C renal = tested on: SN12C renal
SNB-19 CNS = tested on: SNB-19 CNS
SNB-75 CNS = tested on: SNB-75 CNS
SNB-78 CNS = tested on: SNB-78 CNS
SW-620 colon = tested on: SW-620 colon
TK-10 renal = tested on: TK-10 renal
U251 CNS = tested on: U251 CNS
UACC-257 melanoma = tested on: UACC-257 melanoma
UACC-62 melanoma = tested on: UACC-62 melanoma
UO-31 renal = tested on: UO-31 renal
XF 498 CNS = tested on: XF 498 CNS
HL-60(TB) leukemia = tested on: HL-60(TB) leukemia
HOP-62 NSCLC = tested on: HOP-62 NSCLC
HOP-92 NSCLC = tested on: HOP-92 NSCLC
NCI-H226 lung = tested on: NCI-H226 lung
SF-295 CNS = tested on: SF-295 CNS
SR leukemia = tested on: SR leukemia

Work on Cc1ccccc1C1=C(C(=O)Nc2ccc(Cl)c(Cl)c2)NC(=S)NC1N (stereo unspecified) yielded a TGI (786-0 renal) of over 100 µM, a TGI (A498 renal) of over 100 µM and a TGI (A549 NSCLC) of over 100 µM. For the same compound, the TGI (ACHN renal) was over 100 µM, the TGI (CAKI-1 renal) was over 100 µM and the TGI (CCRF-CEM leukemia) was over 100 µM. The TGI (COLO 205 colon) was over 100 µM, the TGI (DLD-1 colon) was over 100 µM and the TGI (DMS 114 small cell lung) was over 100 µM. For the same compound, the TGI (DMS 273 small cell lung) was over 100 µM, the TGI (EKVX NSCLC) was over 100 µM and the TGI (HCT-116 colon) was over 100 µM. For the same compound, the TGI (HCT-15 colon) was over 100 µM, the TGI (HOP-18 NSCLC) was over 100 µM and the TGI (HT29 colon) was over 100 µM. For the same compound, the TGI (IGROV1 ovarian) was over 100 µM, the TGI (K-562 leukemia) was over 100 µM and the TGI (KM12 colon) was over 100 µM. For the same compound, the TGI (KM20L2 colon) was over 100 µM, the TGI (LOX IMVI melanoma) was over 100 µM and the TGI (LXFL 529 NSCLC) was over 100 µM. For the same compound, the TGI (M14 melanoma) was over 100 µM, the TGI (M19-MEL melanoma) was over 100 µM and the TGI (MALME-3M melanoma) was over 100 µM. The TGI (MOLT-4 leukemia) was over 100 µM, the TGI (NCI-H23 lung) was over 100 µM and the TGI (NCI-H460 lung) was over 100 µM. The TGI (NCI-H522 lung) was over 100 µM, the TGI (OVCAR-3 ovarian) was over 100 µM and the TGI (OVCAR-4 ovarian) was over 100 µM. It also gave a TGI (OVCAR-5 ovarian) of over 100 µM, a TGI (OVCAR-8 ovarian) of over 100 µM and a TGI (RPMI-8226 leukemia) of over 100 µM. It also gave a TGI (RXF 393 renal) of over 100 µM, a TGI (RXF-631 renal) of over 100 µM and a TGI (SF-268 CNS) of over 100 µM. It also gave a TGI (SF-539 CNS) of over 100 µM, a TGI (SK-MEL-2 melanoma) of over 100 µM and a TGI (SK-MEL-28 melanoma) of over 100 µM. For the same compound, the TGI (SK-MEL-5 melanoma) was over 100 µM, the TGI (SK-OV-3 ovarian) was over 100 µM and the TGI (SN12C renal) was over 100 µM. It also gave a TGI (SNB-19 CNS) of over 100 µM, a TGI (SNB-75 CNS) of over 100 µM and a TGI (SNB-78 CNS) of over 100 µM. It also gave a TGI (SW-620 colon) of over 100 µM, a TGI (TK-10 renal) of over 100 µM and a TGI (U251 CNS) of over 100 µM. It also gave a TGI (UACC-257 melanoma) of over 100 µM, a TGI (UACC-62 melanoma) of over 100 µM and a TGI (UO-31 renal) of over 100 µM. For the same compound, the TGI (XF 498 CNS) was over 100 µM.

Compound OC1(c2ccccc2)OC(C#Cc2ccccc2)(c2ccccc2)c2ccccc21 (stereo unspecified) has a TGI (786-0 renal) of 13.5 µM, a TGI (A498 renal) of 10.1 µM and a TGI (A549 NSCLC) of 14.8 µM. The TGI (CAKI-1 renal) was 13.9 µM, the TGI (CCRF-CEM leukemia) was over 100 µM and the TGI (COLO 205 colon) was 5.38 µM. The TGI (DLD-1 colon) was 11.2 µM, the TGI (DMS 114 small cell lung) was 9.01 µM and the TGI (DMS 273 small cell lung) was 12.1 µM. The TGI (EKVX NSCLC) was 11.9 µM, the TGI (HCT-116 colon) was 3.07 µM and the TGI (HCT-15 colon) was 13.1 µM. The TGI (HL-60(TB) leukemia) was over 100 µM, the TGI (HOP-62 NSCLC) was 28.8 µM and the TGI (HOP-92 NSCLC) was 13.2 µM. It also gave a TGI (HT29 colon) of 4.38 µM, a TGI (IGROV1 ovarian) of 24.1 µM and a TGI (K-562 leukemia) of over 100 µM. For the same compound, the TGI (KM12 colon) was 2.99 µM, the TGI (KM20L2 colon) was 13.6 µM and the TGI (LOX IMVI melanoma) was 11.2 µM. For the same compound, the TGI (LXFL 529 NSCLC) was 19.2 µM, the TGI (M14 melanoma) was 3.97 µM and the TGI (M19-MEL melanoma) was 11.1 µM. For the same compound, the TGI (MALME-3M melanoma) was 22.7 µM, the TGI (MOLT-4 leukemia) was 8.01 µM and the TGI (NCI-H226 lung) was 7.98 µM. It also gave a TGI (NCI-H23 lung) of 11.3 µM, a TGI (NCI-H460 lung) of 17.7 µM and a TGI (NCI-H522 lung) of 20.3 µM. The TGI (OVCAR-3 ovarian) was 5.93 µM, the TGI (OVCAR-4 ovarian) was 5.85 µM and the TGI (OVCAR-5 ovarian) was 16.8 µM. For the same compound, the TGI (OVCAR-8 ovarian) was 5.87 µM, the TGI (RPMI-8226 leukemia) was 6.62 µM and the TGI (RXF 393 renal) was 5.58 µM. It also gave a TGI (RXF-631 renal) of 13.3 µM, a TGI (SF-268 CNS) of 15.2 µM and a TGI (SF-295 CNS) of 18 µM. The TGI (SF-539 CNS) was 4.07 µM, the TGI (SK-MEL-5 melanoma) was 20.2 µM and the TGI (SK-OV-3 ovarian) was 5.04 µM. For the same compound, the TGI (SN12C renal) was 10.2 µM, the TGI (SNB-19 CNS) was 26.3 µM and the TGI (SNB-75 CNS) was 20.4 µM. For the same compound, the TGI (SNB-78 CNS) was 23.2 µM, the TGI (SR leukemia) was 9.39 µM and the TGI (SW-620 colon) was 15.4 µM. It also gave a TGI (TK-10 renal) of 26.2 µM, a TGI (U251 CNS) of 15.1 µM and a TGI (UACC-257 melanoma) of 20.9 µM. It also gave a TGI (UACC-62 melanoma) of 3.84 µM, a TGI (UO-31 renal) of 4.05 µM and a TGI (XF 498 CNS) of 19.8 µM.
